Laboratory results as given in the NIST ThermoML archive (doi:10.1021/je500093z).

Assays:
[1] = refractive index (Na D-line) (dimensionless); details: 101.33 kPa, Liquid, Standard Abbe refractometry
[2] = for surface tension liquid-gas: Ring tensiometer; for viscosity / speed of sound / mass density: 101.33 kPa, Liquid; for speed of sound: Pulse-echo method; for mass density: Vibrating tube method

COS(=O)(=O)[O-].Cn1cc[n+](C)c1 [1,3-dimethylimidazolium methylsulfate]
Details	mass density, [2] [kg/m3]	refractive index, [1]	speed of sound, [2] [m/s]	surface tension liquid-gas, [2] [mN/m]	viscosity, [2] [mPa·s]
298.15 K	1329	1.4817	1811.5	57.6	71.7
303.15 K	1323	1.4811	1799.4	57.3	57.6
308.15 K	1319	1.4804	1787.3	56.8	46.93
313.15 K	1316	1.4797	1775.4	56.4	38.81
318.15 K	1312	1.4792	1763.6	56	32.52
323.15 K	1308	1.4785	1751.9	55.5	27.59
328.15 K	1305	1.4779	1740.3	55.1	23.67
333.15 K	1302	1.4771	1728.8	54.8	20.5

CCCCn1cc[n+](C)c1.F[P-](F)(F)(F)(F)F [1-butyl-3-methylimidazolium hexafluorophosphate]
Details	mass density, [2] [kg/m3]	refractive index, [1]	speed of sound, [2] [m/s]	surface tension liquid-gas, [2] [mN/m]	viscosity, [2] [mPa·s]
298.15 K	1367	1.4101	1443.6	43	273.94
303.15 K	1363	1.4085	1431.6	42.6	203.2
308.15 K	1359	1.4081	1419.8	42.2	153.99
313.15 K	1355	1.407	1408.3	41.9	118.96
318.15 K	1351	1.4068	1396.9	41.7	93.44
323.15 K	1347	1.4058	1385.8	41.2	74.6
328.15 K	1343	1.4053	1374.7	40.8	60.43
333.15 K	1339	1.4042	1363.8	40.5	49.62

CCCCn1cc[n+](C)c1.O=S(=O)([O-])O [1-butyl-3-methylimidazolium hydrogen sulfate]
Details	mass density, [2] [kg/m3]	refractive index, [1]	speed of sound, [2] [m/s]	surface tension liquid-gas, [2] [mN/m]	viscosity, [2] [mPa·s]
298.15 K	1224	1.5043	1689.8	43.6	439.36
303.15 K	1220	1.5	1676.7	43.2	321.95
308.15 K	1217	1.4965	1664.3	42.8	240.81
313.15 K	1214	1.4914	1652.1	42.4	183.54
318.15 K	1211	1.4857	1640.2	42	142.55
323.15 K	1208	1.4813	1628.5	41.7	112.37
328.15 K	1204	1.4762	1615.5	41.3	89.95
333.15 K	1201	1.4721	1601.5	40.9	72.88

CCCC[n+]1ccc(C)cc1.F[B-](F)(F)F [1-butyl-4-methylpyridinium tetrafluoroborate]
Details	mass density, [2] [kg/m3]	refractive index, [1]	speed of sound, [2] [m/s]	surface tension liquid-gas, [2] [mN/m]	viscosity, [2] [mPa·s]
298.15 K	1190	1.4507	1602.3	45.4	202.86
303.15 K	1186	1.4502	1589.7	45.1	146.57
308.15 K	1183	1.4495	1577.4	44.8	108.7
313.15 K	1179	1.4488	1565.2	44.5	82.49
318.15 K	1176	1.4482	1553.2	44.2	63.94
323.15 K	1173	1.4475	1541.2	43.9	50.51
328.15 K	1169	1.4469	1529.6	43.5	40.6
333.15 K	1166	1.4463	1517.9	43.2	33.14

CCn1cc[n+](C)c1.COS(=O)(=O)[O-] [1-ethyl-3-methylimidazolium methylsulfate]
Details	mass density, [2] [kg/m3]	refractive index, [1]	speed of sound, [2] [m/s]	surface tension liquid-gas, [2] [mN/m]	viscosity, [2] [mPa·s]
298.15 K	1292	1.4741	1762.1	39.8	94.91
303.15 K	1289	1.4739	1750.4	39.5	76.8
308.15 K	1285	1.4735	1738.7	39.2	61.66
313.15 K	1282	1.4721	1727	38.9	51.28
318.15 K	1279	1.4716	1715.5	38.8	42.42
323.15 K	1275	1.4706	1704	38.4	35.33
328.15 K	1272	1.4702	1692.6	38.2	30.11
333.15 K	1268	1.4698	1681.3	38	26.25

CCCCCCn1cc[n+](C)c1.F[P-](F)(F)(F)(F)F [1-hexyl-3-methylimidazolium hexafluorophosphate]
Details	mass density, [2] [kg/m3]	refractive index, [1]	speed of sound, [2] [m/s]	surface tension liquid-gas, [2] [mN/m]	viscosity, [2] [mPa·s]
298.15 K	1292	1.4179	1424.4	37.2	349.17
303.15 K	1288	1.4161	1411.3	36.9	253.96
308.15 K	1284	1.4148	1399.6	36.6	188.77
313.15 K	1280	1.4134	1386.7	36.3	142.99
318.15 K	1276	1.4115	1374.9	36	110.24
323.15 K	1272	1.4104	1363.4	35.7	86.42
328.15 K	1268	1.4088	1352.1	35.4	68.87
333.15 K	1264	1.4075	1340.8	35.1	55.62

CCCCCCCC[n+]1ccn(C)c1.[Cl-] [1-methyl-3-octylimidazolium chloride]
Details	mass density, [2] [kg/m3]	refractive index, [1]	speed of sound, [2] [m/s]	surface tension liquid-gas, [2] [mN/m]	viscosity, [2] [mPa·s]
298.15 K	1010	1.5088	1687.2	32.5	13267
303.15 K	1007	1.5085	1667.7	32.2	7770.4
308.15 K	1004	1.5061	1646.1	31.9	4755.2
313.15 K	1001	1.5058	1619.6	31.6	3006.7
318.15 K	998	1.5054	1597.1	31.3	1967.6
323.15 K	995	1.5048	1577.4	31	1323.4
328.15 K	992	1.5037	1559.6	30.7	914.13
333.15 K	989	1.5029	1543	30.4	646.96

CCCCCCCC[n+]1ccn(C)c1.F[P-](F)(F)(F)(F)F [1-octyl-3-methylimidazolium hexafluorophosphate]
Details	mass density, [2] [kg/m3]	refractive index, [1]	speed of sound, [2] [m/s]	surface tension liquid-gas, [2] [mN/m]	viscosity, [2] [mPa·s]
298.15 K	1234	1.4217	1404.7	36.1	603.44
303.15 K	1231	1.4211	1390.3	35.9	430.88
308.15 K	1226	1.4206	1376.6	35.6	314.44
313.15 K	1223	1.4201	1363.6	35.3	234.24
318.15 K	1219	1.4195	1351	35.1	177.79
323.15 K	1215	1.4186	1338.9	34.9	137.24
328.15 K	1211	1.4177	1327	34.6	107.58
333.15 K	1208	1.4167	1315.5	34.3	85.58

CC(C)C[P+](C)(CC(C)C)CC(C)C.Cc1ccc(S(=O)(=O)[O-])cc1 [triisobutylmethylphosphonium p-toluenesulfonate]
Details	mass density, [2] [kg/m3]	refractive index, [1]	speed of sound, [2] [m/s]	surface tension liquid-gas, [2] [mN/m]	viscosity, [2] [mPa·s]
298.15 K	1068	1.5185	1628.8	33.9	2132.4
303.15 K	1065	1.5181	1610.6	33.8	1363.2
308.15 K	1062	1.5174	1585.6	33.6	896.08
313.15 K	1059	1.516	1567.6	33.4	606.71
318.15 K	1056	1.5151	1551.1	33.2	422.49
323.15 K	1053	1.5144	1535.7	32.9	302.17
328.15 K	1050	1.5123	1521.5	32.8	221.27
333.15 K	1047	1.5119	1508.3	32.6	165.53
